In US9782427B2, “Methods for treating cancer using TOR kinase inhibitor combination therapy” (Signal Pharmaceuticals, LLC, priority 2013, dated 2017):
Each block holds one molecule with its values, some of them ahead of it.

Columns and labels:
Caov-3 = test: Cell viability (CellTiter-Glo) and combination index, ovarian cell line; assay type: cell-based; conditions: combination with VIDAZA, 3 days, CalcuSyn, Chou-Talalay
Method: (§1) Cell viability was assessed using the Cell Titer-Glo® Luminescent Cell Viability Assay, Catalog Number G7570 (Promega Corporation, Madison, Wis.). The assay is a homogenous method of determining the number of viable cells in culture based on quantitation of the adenosine triphosphate (ATP) present, an indicator of metabolically active cells. The homogenous assay procedure involves adding the single reagent (CellTiter-Glo Reagent) directly to cells cultured in serum-supplemented medium. Cells were plated into a 96-well flat bottom plate (Costar Catalog Number 33595) at densities that were previously optimized for each cell line. The cells were incubated overnight in 5% CO2 at 37° C. The following day, compound dilutions were prepared and all concentrations were assayed in triplicate. The cells were incubated with a TOR kinase inhibitor or a TOR kinase inhibitor and a second active agent, in 5% CO2 at 37° C. for 3 days. After a 3-day incubation period, 100 μL, of CellTiter-Glo reagent was added to each well for 2 min with shaking and further incubated for 10 min (no shaking) at room temperature to stabilize the signal. The luminescence was measured on the VICTOR X2 multilabel plate reader. The percent growth inhibition was calculated using the DMSO control in the same plate (no compound) response as 100% cell growth. For single compound treatments (TORKi and second active agents separately), the average values from triplicates were plotted to obtain IC50 values using software XLfit from IDBS. The formula used for determining IC50 in XLfit was model number 205, which utilizes a 4 Parameter Logistic Model or Sigmoidal Dose-Response Model to calculate the IC50 values.
(§2) The cell viability assay was first performed with the TOR kinase inhibitor and the individual second active agents, to determine the dose range for subsequent combination studies. […] The TOR kinase inhibitor and the second active agent were each added to one well containing a final concentration of 0.2% DMSO (in triplicate). In the same plate in triplicate, the cells were treated with the TOR kinase inhibitor and each second active agent either simultaneously or sequentially (containing 0.2% DMSO). The number of cells affected by compound treatment was normalized to the DMSO control (100% viability) and the data was imported into the CalcuSyn software (V2.1, Biosoft). Synergism was quantitated by the combination index (CI) using CalcuSyn according to Chou-Talalay's CI method with mathematical modeling and simulations. […] ED50 is the median effect dose at which a 50% growth inhibition is achieved.

Ovcar-3 = test: as above; assay type: cell-based; conditions: combination with VIDAZA, 3 days, CalcuSyn, Chou-Talalay
Method: as §1, §2

Ovcar-4 = test: as above; assay type: cell-based; conditions: combination with VIDAZA, 3 days, CalcuSyn, Chou-Talalay
Method: as §1, §2

Ovcar-5 = test: as above; assay type: cell-based; conditions: combination with VIDAZA, 3 days, CalcuSyn, Chou-Talalay
Method: as §1, §2

Ovcar-8 = test: as above; assay type: cell-based; conditions: combination with VIDAZA, 3 days, CalcuSyn, Chou-Talalay
Method: as §1, §2

[1] = test system: seventeen breast cancer cell line panel; test: Anti-proliferation assay (ATPLite), breast cancer cell line panel; assay type: cell-based; conditions: cell lines where inhibition levels greater than fifty percent were reached; 72 h; read-out: median GI50
Method: Cells were thawed from a liquid nitrogen preserved state. Once cells expanded and divided at their expected doubling times, screening began.
Cells were equilibrated in assay plates via centrifugation and placed in incubators attached to the Dosing Modules at 37° C. for twenty-four hours before treatment. […] These T zero (T0) plates were read using ultra-sensitive luminescence on Envision Plate Readers. Treated assay plates were incubated with compound (single compound or combination) for seventy-two hours. After seventy-two hours, plates were developed for endpoint analysis using ATPLite. All data points were collected via automated processes; quality controlled; and analyzed. Assay plates were accepted if they passed the following quality control standards: relative luciferase values were consistent throughout the entire experiment, Z-factor scores were greater than 0.6, untreated/vehicle controls behaved consistently on the plate. The calculation for synergy score is provided below.
Growth Inhibition (GI) was used as a measure of cell viability. The cell viability of vehicle was measured at the time of dosing (T0) and after seventy-two hours (T72). A GI reading of 0% represents no growth inhibition—cells treated with compound and T72 vehicle signals are matched. […] GI was calculated by applying the following test and equation: If T<V0:100*[1−(T−V0)/V0] […]

HepG2 cells = test: Anchorage independent growth (colony formation) assay; assay type: cell-based, Human; conditions: single agent; for colony formation: 8 days
Method: (§3) The effect of Compound 1 on anchorage-independent growth (AIG) was assessed by colony formation assay in 2 Human Hepatocellular Carcinoma (“HHC”) cell lines, HepG2 and SK-Hep-1.
(§4) Cell Lines/Cells. Human cell lines HepG2 and SK-Hep-1 cells were obtained from American Type Culture Collection (ATCC; Manassas, Va.). Cells were cultured in DMEM (Dulbecco's Modified Eagle's Medium) (Mediatech; Mannasas, Va.) with 10% Premium FBS (Lonza, Walkersville, Md.).
(§5) (1) Single Agent Colony Formation Assay. Nobel Agar (1.2 grams; BD; Franklin Lakes, N.J.) was placed in a 100-mL sterile bottle. Sterile water (100 mL) was added and microwaved until the agar boiled. Equal volumes of agar and 2×RPMI medium (ECE Scientific; Doylestown, Pa.) were mixed and 300 μL were transferred to each well in a 24-well flat bottom plate (BD; Franklin Lakes, N.J.). Plates were kept at 4° C. until the agar solidified. Cultures of HepG2 and SK-Hep-1 cells were harvested and resuspended in culture medium at 3.6×10^3 cells/mL. Equal volumes of agar, 2×RPMI, and cell suspension (1:1:1) were mixed in a sterile tube and 500 μL/well were immediately transferred into the 24-well plates. Plates were kept at 4° C. until the agar solidified. Culture medium (500 μL) containing compound or DMSO was added to each well (final DMSO concentration for each treatment was 0.2%). Compound 1 was tested at final concentrations of 0.1, 0.3, 1, 3, 10 and 30 μM. 5-AZA was tested at final concentrations of 1, 3 and 10 μM. Cell treatments were set up in triplicate. Cells were incubated for 8-10 days at 37° C. in a 5% CO2 atmosphere. Photographs (2× magnification) of each well were taken using a Nikon DXM1200 Digital Camera and Nikon ACT1 software and saved as a TIFF file. ImageQuant TL (GE Healthcare; Piscataway, N.J.) Colony Count Software was used to count colonies. (2) Combination Study Colony Formation Assay. Nobel Agar (1.2 grams; BD; Franklin Lakes, N.J.) was placed in a 100-mL sterile bottle. Sterile water (100 mL) was added and microwaved until the agar boiled. Equal volumes of agar and 2×RPMI medium (ECE Scientific; Doylestown, Pa.) were mixed and 300 μL were transferred to each well in a 24-well flat bottom plate (BD; Franklin Lakes, N.J.). Plates were kept at 4° C. until the agar solidified. Cultures of HepG2 and SK-Hep-1 cells were harvested and resuspended in culture medium at 3.6×10^3 cells/mL. Equal volumes of agar, 2×RPMI, and cell suspension (1:1:1) were mixed in a sterile tube and 500 μL/well were immediately transferred into the 24-well plates. Plates were kept at 4° C. until the agar solidified. Culture medium (500 μL) containing compound or DMSO was added to each well (final DMSO concentration for each treatment was 0.2%). Cells were treated with single treatment as follows: Compound 1 was tested at final concentrations of 0.1 and 0.3 μM. 5-AZA was tested at 3 μM. Combinations of Compound 1 at 0.1 and 0.3 μM were tested with 3 μM 5-AZA. Cell treatments were set up in triplicate. Cells were incubated for 8-10 days at 37° C. in a 5% CO2 atmosphere. Photographs (2× magnification) of each well were taken using a Nikon DXM1200 Digital Camera and Nikon ACT1 software and saved as a TIFF file. ImageQuant TL (GE Healthcare; Piscataway, N.J.) Colony Count Software was used to count colonies.
(§6) Significance versus the DMSO control was calculated using One Way ANOVA and Dunnett's Post test or unpaired t tests using GraphPad Prism v5.01. To evaluate the combinatory effect, data from the three independent experiments were analyzed by comparing the combinatory response against the theoretical additive response of the two agents.

SK-Hep-1 cells = test: as above; assay type: cell-based, Human; conditions: single agent
Method: as §3, §4, §5, §6

[2] = test system: subjects with higher-risk MDS; conditions: Phase III study, administered subcutaneously; cited from earlier work
[3] = concentrations of 0.1 to 100 μM

Structure (SMILES): Cc1nc(-c2nnc[nH]2)ccc1-c1cnc2c(n1)N(CCC1CCOCC1)C(=O)CN2 [Compound 3, 7-(2-methyl-6-(4H-1,2,4-triazol-3-yl)pyridin-3-yl)-1-(2-(tetrahydro-2H-pyran-4-yl)ethyl)-3,4-dihydropyrazino[2,3-b]pyrazin-2(1H)-one]
Combination index (CI) at the ED50 (Caov-3): 0.92
Combination index (CI) at the ED50 (Ovcar-3): 0.55
Combination index (CI) at the ED50 (Ovcar-4): 0.61
Combination index (CI) at the ED50 (Ovcar-5): 0.76
Combination index (CI) at the ED50 (Ovcar-8): 0.81

GI50 [1]: 140 nM
Structure (SMILES): CCN1C(=O)CNc2ncc(-c3ccc(-c4nc[nH]n4)nc3C)nc21 [Compound 2, 1-ethyl-7-(2-methyl-6-(1H-1,2,4-triazol-3-yl)pyridin-3-yl)-3,4-dihydropyrazino[2,3-b]pyrazin-2(1H)-one]

Structure (SMILES): CO[C@H]1CC[C@H](N2C(=O)CNc3ncc(-c4ccc(C(C)(C)O)nc4)nc32)CC1 [Compound 1, 7-(6-(2-hydroxypropan-2-yl)pyridin-3-yl)-1-((1r,4r)-4-methoxycyclohexyl)-3,4-dihydropyrazino-[2,3-b]pyrazin-2(1H)-one]
Combination index (CI) at the ED50 (Caov-3): 1.08
Combination index (CI) at the ED50 (Ovcar-3): 1.23
Combination index (CI) at the ED50 (Ovcar-4): 0.99
Combination index (CI) at the ED50 (Ovcar-5): 0.92
Combination index (CI) at the ED50 (Ovcar-8): 0.99
colony formation (HepG2 cells; 0.1 μM): 74 % of control
colony formation (HepG2 cells; 0.3 μM): 57 % of control
colony formation (HepG2 cells; 1 μM): 33 % of control
colony formation (HepG2 cells; 3 μM): 24 % of control
colony formation (HepG2 cells; 10 μM): 16 % of control
colony formation (HepG2 cells; 30 μM): 11 % of control
anti-colony forming activity (HepG2 cells; [3]): dose-dependent and significant anti-colony forming activity
inhibition of colony formation (SK-Hep-1 cells; 3 μM and higher): 100%
colony formation (SK-Hep-1 cells; 0.3-30 μM, 8-10 days): 0-45 % of control
anti-colony forming activity (SK-Hep-1 cells; [3]): dose-dependent and significant anti-colony forming activity

Structure (SMILES): Nc1ncn([C@@H]2O[C@H](CO)[C@@H](O)[C@H]2O)c(=O)n1 [Compound 5-AZA, 4-amino-1-β-D-ribofuranosyl-1,3,5-triazin-2(1H)-one, reference compound]
colony formation (HepG2 cells; at 1, 3 and 10 μM): 43-76 % of control
colony formation (SK-Hep-1 cells; 10 μM, 8 days): 38 % of control
survival and time to AML transformation or death [2]: significantly prolonged survival and time to AML transformation or death
